# Assay results reported in patent US5441973A, “N-acyl-4-phenyl-pyrrolidin-2-ones and method for preparing” (Arzneimittelwerk Dresden G.m.b.H., priority 1990, dated 1995).
# Test: not given
# Conditions: from prior patents / known; cited from earlier work
row,SMILES,CNS effect reported in prior publications
1,NC(=O)N1c2ccccc2C=Cc2ccccc21 [carbamazepine],nootropic effects
2,O=C1CC(c2ccc(Cl)cc2)CN1 (stereo not drawn) [4-(4-chlorophenyl)-pyrrolidin-2-one],anticonvulsive effect
3,CCCC(CCC)C(=O)O [dipropylacetic acid],nootropic effects
4,CCCC(CCC)C(=O)N1CCCC1=O [N-dipropylacetylpyrrolidin-2-one],nootropic effects

# Test: in vivo
# Conditions: mouse, ip
row,SMILES,LD50 [mg/kg]
1,O=C(COc1ccc(Cl)cc1)N1CC(c2ccc(Cl)cc2)CC1=O (stereo not drawn) [compound 5],> 2000
2,COc1ccc(C(=O)N2CC(c3ccccc3)CC2=O)cc1 (stereo not drawn) [compound 3],> 2000
3,NC(=O)CN1CCCC1=O [Piracetam],> 2000
4,COc1ccc(C(=O)N2CC(c3ccc(Cl)cc3)CC2=O)cc1 (stereo not drawn) [compound 4],> 2000
5,CCCC(CCC)C(=O)O [Ca-Valproate],455
6,CCCC(CCC)C(=O)N1CC(c2ccccc2)CC1=O (stereo not drawn) [compound 1],1630
7,CCCC(CCC)C(=O)N1CC(c2ccc(Cl)cc2)CC1=O (stereo not drawn) [compound 2],> 2000
8,CCOC(=O)C1C(=O)N(C(=O)c2ccc(OC)cc2)CC1c1ccccc1 (stereo not drawn) [compound 6],> 2000
